Assay results: the CheMixHub viscosity set

Assay: xn = mol fraction of the nth substance listed

COCCOCCOC + CCCCCCCO
101 kPa
Conditions	viscosity [mPa·s]
293.15 K, x1 = 0.04527	5.749
293.15 K, x1 = 0.09631	4.758
293.15 K, x1 = 0.1964	3.424
293.15 K, x1 = 0.2974	2.659
293.15 K, x1 = 0.3948	2.201
293.15 K, x1 = 0.4982	1.826
293.15 K, x1 = 0.5957	1.573
293.15 K, x1 = 0.6957	1.385
293.15 K, x1 = 0.8053	1.255
293.15 K, x1 = 0.8916	1.169
293.15 K, x1 = 0.957	1.12
303.15 K, x1 = 0.05391	4.113
303.15 K, x1 = 0.09481	3.59
303.15 K, x1 = 0.198	2.635
303.15 K, x1 = 0.2974	2.097
303.15 K, x1 = 0.3935	1.765
303.15 K, x1 = 0.4894	1.515
303.15 K, x1 = 0.5993	1.294
303.15 K, x1 = 0.6968	1.153
303.15 K, x1 = 0.8032	1.053
303.15 K, x1 = 0.8887	0.999
303.15 K, x1 = 0.9613	0.958
313.15 K, x1 = 0.05044	3.122
313.15 K, x1 = 0.0869	2.793
313.15 K, x1 = 0.1869	2.128
313.15 K, x1 = 0.2981	1.689
313.15 K, x1 = 0.3977	1.428
313.15 K, x1 = 0.5081	1.228
313.15 K, x1 = 0.5937	1.096
313.15 K, x1 = 0.7001	0.974
313.15 K, x1 = 0.7989	0.903
313.15 K, x1 = 0.8893	0.848
313.15 K, x1 = 0.9538	0.819

ClC(Cl)C(Cl)Cl + CCO
viscosity [mPa·s], 101.32 kPa
Conditions	x2 = 0.167	x2 = 0.3109	x2 = 0.4362	x2 = 0.5461	x2 = 0.6435	x2 = 0.7303	x2 = 0.8081	x2 = 0.8783	x2 = 0.942
303.15 K	1.369	1.324	1.257	1.21	1.166	1.12	1.095	1.047	1.026
313.15 K	1.24	1.16	1.107	1.049	1.007	0.965	0.934	0.903	0.868
323.15 K	1.121	1.068	0.961	0.91	0.869	0.819	0.795	0.787	0.732

CNc1ccccc1 + O=[N+]([O-])c1ccccc1
Conditions	viscosity [mPa·s]
303.15 K, 101.3 kPa, x1 = 0.5	1.52

O=C1NC(=O)c2ccccc21 + c1ccncc1
298.15 K, 101 kPa
Conditions	viscosity [mPa·s]
x1 = 0.0278	0.9878
x1 = 0.06788	1.182

Oc1ccccc1 + CC(=O)c1ccccc1
303.15 K, 101 kPa
Conditions	viscosity [mPa·s]
x2 = 0.0901	4.976
x2 = 0.2182	4.319
x2 = 0.3102	3.905
x2 = 0.4048	3.519
x2 = 0.5083	3.131
x2 = 0.5936	2.839
x2 = 0.7241	2.404
x2 = 0.7583	2.295
x2 = 0.8846	1.887

ClC(Cl)C(Cl)Cl + CC(C)=O
298.15 K, 101 kPa
Conditions	viscosity [mPa·s]
x1 = 0.2	0.509
x1 = 0.4	0.811
x1 = 0.6	1.138
x1 = 0.8	1.499

CC=CC(=O)O + Cc1ccccc1
viscosity [mPa·s], 101 kPa
Conditions	298.15 K	303.15 K	313.15 K	323.15 K
x1 = 0.0503	0.5712	0.5371	0.4796	0.4317
x1 = 0.0975	0.5997	0.5609	0.4998	0.4502
x1 = 0.148	0.6218	0.5858	0.5213	0.4671

Oc1ccccc1 + CS(C)=O
viscosity [mPa·s], 101 kPa
Conditions	x2 = 0.2	x2 = 0.3	x2 = 0.4	x2 = 0.5	x2 = 0.6	x2 = 0.7	x2 = 0.8	x2 = 0.9
298.15 K	8.913	7.767	6.467	5.173	4.111	3.282	2.726	2.308
308.15 K	5.87	5.328	4.618	3.826	3.127	2.579	2.192	1.902
318.15 K	4.15	3.888	3.486	2.977	2.489	2.09	1.794	1.577
